Source: US5488051A, “Substituted 5,6-dihydro-5-oxo-1,4-dithiino-(2,3-d)-pyridazine-2,3-dicarbonitriles, compositions containing them and their use as antimicrobials” (The Dow Chemical Company, priority 1994, dated 1996)
Values after ≈ are worked out from the molar mass of the structure shown. Like-named read-outs stand apart in the source and are kept apart here.

Columns and labels:
[1] = tested on: Staphylococcus aureus (Sa); assay: MIC for Staphylococcus aureus, nutrient agar; assay type: cell-based, Staphylococcus aureus ATCC 6538; conditions: 30° C., 48 hours, read-out: Minimum Inhibitory Concentration (MIC), Sa
Method: (§1) The minimum inhibitory concentration (MIC) for the compounds listed in Table I is determined for 9 bacteria, using nutrient agar; and 7 yeast and fungi, using malt yeast agar. A one percent solution of the test compound is prepared in a mixture of acetone and water.
(§2) Nutrient agar is prepared at pH 6.8, representing a neutral medium, and at pH 8.2, representing an alkaline medium. The nutrient agars are prepared by adding 23 g of nutrient agar to one-liter of deionized water. In addition, the alkaline medium is prepared by adjusting a 0.04M solution of N-[tris-(hydroxymethyl)methyl]-glycine buffered deionized water with concentrated sodium hydroxide to a pH of 8.5.
(§3) The test tubes containing the malt yeast agar and the nutrient agar are cooled in a water bath until the temperature of the agar is 48° C. Then, an appropriate amount of the one percent solution of the test compound is added (except in the controls where no compound is added) to the respective test tubes so that the final concentrations are zero (0), 1.0, 2.5, 5, 10, 25, 50, 100, 250 and 500 parts per million of the test compound in each of the respective type of agar. The contents of each of the test tubes are then transferred to separate petri plates. After drying for 24 hours, the petri plates containing nutrient agar are inoculated with bacteria and those containing malt yeast agar are inoculated with yeast and fungi.
(§4) The inoculation with bacteria is accomplished by using the following procedure. Twenty-four hour-cultures of each of the bacteria are prepared by incubating the respective bacteria in tubes containing nutrient broth for 24 hours at 30° C. in a shaker. Dilutions of each of the 24 hour-cultures are made so that nine separate suspensions (one for each of the nine test bacteria) are made, each containing 10^8 colony forming units (CFU) per mL of suspension of a particular bacteria. Aliquots of 0.3 mL of each of the bacterial suspensions are used to fill the individual wells of Steer's Replicator. For each microbial suspension, 0.3 mL was used to fill three wells (i.e., three wells of 0.3 mL each) so that for the nine different bacteria, 27 wells are filled. The Steer's Replicator is then used to inoculate both the neutral and alkaline pH nutrient agar petri plates.
(§5) The inoculated petri plates are incubated at 30° C. for 48 hours and then read to determine if the test compound which is incorporated into the agar prevented growth of the respective bacteria.
(§6) Table II list the bacteria, yeast and fungi used in the MIC test described above along with their respective American Type Culture Collection (ATCC) identification numbers.

[2] = tested on: Pseudomonas aeruginosa (PRD-10); assay: MIC for Pseudomonas aeruginosa PRD-10, nutrient agar; assay type: cell-based, Pseudomonas aeruginosa ATCC 15442; conditions: 30° C., 48 hours, read-out: Minimum Inhibitory Concentration (MIC), PRD
Method: as §1, §2, §3, §4, §5, §6

[3] = tested on: Pseudomonas aeruginosa (Pa); assay: MIC for Pseudomonas aeruginosa, nutrient agar; assay type: cell-based, Pseudomonas aeruginosa ATCC 10145; conditions: 48 hours, read-out: Minimum Inhibitory Concentration (MIC), Pa
Method: as §1, §2, §3, §4, §5, §6

Fusarium oxysporum (Fo) = assay: MIC for Fusarium oxysporum, malt yeast agar; assay type: cell-based, Fusarium oxysporum ATCC 48112; conditions: malt yeast agar; 30° C., 72 hours for fungi; read-out: Minimum Inhibitory Concentration (MIC), Fo
Method: as §1
(§7) Malt yeast agar is prepared by adding 3 g yeast extract and 45 g malt agar per liter of deionized water. The specific agar is dispensed in 30 mL aliquots into 25×200 mm test tubes, capped and autoclaved for 15 minutes at 115° C.
as §3
(§8) The inoculation with the yeast and fungi is accomplished as follows. Cultures of yeast and fungi are incubated for seven days on malt yeast agar at 30° C. These cultures are used to prepare suspensions by the following procedure. A suspension of each organism is prepared by adding 10 mL of sterile saline and 10 microliters of octylphenoxy polyethoxy ethanol to the agar slant of yeast or fungi. The sterile saline/octylphenoxy polyethoxy ethanol solution is then agitated with a sterile swab to suspend the microorganism grown on the slant. Each resulting suspension is diluted into sterile saline (1 part suspension: 9 parts sterile saline). Aliquots of these dilutions are placed in individual wells of Steer's Replicator and petri plates inoculated as previously described. The petri plates are incubated at 30° C. and read after 48 hours for yeast and 72 hours for fungi.
as §6

Trichoderma viride (Tv) = assay: MIC for Trichoderma viride, malt yeast agar; assay type: cell-based, Trichoderma viride ATCC 8678; conditions: malt yeast agar; 30° C., 72 hours for fungi; read-out: Minimum Inhibitory Concentration (MIC), Tv
Method: as §1, §7, §3, §8, §6

[4] = tested on: Aureobasidium pullulan (Ap); assay: MIC for Aureobasidium pullulan, malt yeast agar; assay type: cell-based, Aureobasidium pullulan ATCC 16622; conditions: malt yeast agar; 30° C.; 48 hours for yeast and 72 hours for fungi; read-out: Minimum Inhibitory Concentration (MIC), Ap
Method: as §1, §7, §3, §8, §6

Escherichia coli (Ec) = assay: MIC for Escherichia coli, nutrient agar; assay type: cell-based, Escherichia coli ATCC 11229; conditions: 30° C., 48 hours, read-out: Minimum Inhibitory Concentration (MIC), Ec
Method: as §1, §2, §3, §4, §5, §6

[5] = tested on: Klebsiella pneumonias (Kp); assay: MIC for Klebsiella pneumonias, nutrient agar; assay type: cell-based, Klebsiella pneumonias ATCC 8308; conditions: 30° C., 48 hours, read-out: Minimum Inhibitory Concentration (MIC), Kp
Method: as §1, §2, §3, §4, §5, §6

Candida albicans (Ca) = assay: MIC for Candida albicans, malt yeast agar; assay type: cell-based, Candida albicans ATCC 10231; conditions: malt yeast agar; 30° C., 48 hours for yeast; read-out: Minimum Inhibitory Concentration (MIC), Ca
Method: as §1, §7, §3, §8, §6

Proteus vulgaris (Pv) = assay: MIC for Proteus vulgaris, nutrient agar; assay type: cell-based, Proteus vulgaris ATCC 881; conditions: 30° C., 48 hours, read-out: Minimum Inhibitory Concentration (MIC), Pv
Method: as §1, §2, §3, §4, §5, §6

Bacillus subtilis (Bs) = assay: MIC for Bacillus subtilis, nutrient agar; assay type: cell-based, Bacillus subtilis ATCC 8473; conditions: 30° C., 48 hours, read-out: Minimum Inhibitory Concentration (MIC), Bs
Method: as §1, §2, §3, §4, §5, §6

Saccharomyces cerevisiae = assay: MIC for Saccharomyces cerevisiae, malt yeast agar; assay type: cell-based, Saccharomyces cerevisiae ATCC 4105; conditions: malt yeast agar, 30° C., 48 hours for yeast, read-out: Minimum Inhibitory Concentration (MIC), Sc
Method: as §1, §7, §3, §8, §6

[6] = tested on: Enterobacter aerogenes (Ea); assay: MIC for Enterobacter aerogenes, nutrient agar; assay type: cell-based, Enterobacter aerogenes ATCC 13048; conditions: Klebsiella aerogenes, nutrient agar, 30° C., 48 hours, read-out: Minimum Inhibitory Concentration (MIC), Ea
Method: as §1, §2, §3, §4, §5, §6

[7] = tested on: Penicillium chrysogenum (Pc); assay: MIC for Penicillium chrysogenum, malt yeast agar; assay type: cell-based, Penicillium chrysogenum ATCC 9480; conditions: malt yeast agar; 30° C., 72 hours for fungi; read-out: Minimum Inhibitory Concentration (MIC), PC
Method: as §1, §7, §3, §8, §6

Aspergillus niger (An) = assay: MIC for Aspergillus niger, malt yeast agar; assay type: cell-based, Aspergillus niger ATCC 16404; conditions: malt yeast agar; 30° C., 72 hours for fungi; read-out: Minimum Inhibitory Concentration (MIC), An
Method: as §1, §7, §3, §8, §6

Salmonella choleraesuis = assay: MIC for Salmonella choleraesuis, nutrient agar; assay type: cell-based, Salmonella choleraesuis ATCC 10708; conditions: Salmonella enterica, 30° C., 48 hours, read-out: Minimum Inhibitory Concentration (MIC), SC
Method: as §1, §2, §3, §4, §5, §6

N#CC1=C(C#N)Sc2c(cnn(-c3ccc(Cl)cc3)c2=O)S1 [D, 5,6-dihydro-6-(4-chlorophenyl)-5-oxo-1,4-dithiino-(2,3-d)-pyridazine-2,3-dicarbonitrile]
MIC ([1]; pH 6.8, nutrient agar): > 500 µg/mL
MIC ([1]; pH 8.2, nutrient agar): > 500 µg/mL
MIC ([2]; pH 6.8, nutrient agar): 500 µg/mL (≈ 1450 µM)
MIC ([2]; pH 8.2, nutrient agar): > 500 µg/mL
MIC ([3]; pH 6.8, 30° C.): > 500 µg/mL
MIC ([3]; pH 8.2, 30° C.): > 500 µg/mL
MIC (Fusarium oxysporum (Fo)): 10 µg/mL (≈ 29 µM)
MIC (Trichoderma viride (Tv)): 25 µg/mL (≈ 72.5 µM)
MIC [4]: 10 µg/mL (≈ 29 µM)
MIC (Escherichia coli (Ec); pH 6.8, nutrient agar): 100 µg/mL (≈ 290 µM)
MIC (Escherichia coli (Ec); pH 8.2, nutrient agar): > 500 µg/mL
MIC ([5]; pH 6.8, nutrient agar): > 500 µg/mL
MIC ([5]; pH 8.2, nutrient agar): > 500 µg/mL
MIC (Candida albicans (Ca)): 10 µg/mL (≈ 29 µM)
MIC (Proteus vulgaris (Pv); pH 6.8, nutrient agar): 100 µg/mL (≈ 290 µM)
MIC (Proteus vulgaris (Pv); pH 8.2, nutrient agar): > 500 µg/mL
MIC (Bacillus subtilis (Bs); pH 6.8, nutrient agar): 25 µg/mL (≈ 72.5 µM)
MIC (Bacillus subtilis (Bs); pH 8.2, nutrient agar): 250 µg/mL (≈ 725 µM)
MIC (Saccharomyces cerevisiae): 10 µg/mL (≈ 29 µM)
MIC ([6]; pH 6.8): > 500 µg/mL
MIC ([6]; pH 8.2): > 500 µg/mL
MIC [7]: 25 µg/mL (≈ 72.5 µM)
MIC (Aspergillus niger (An)): 10 µg/mL (≈ 29 µM)
MIC (Salmonella choleraesuis; pH 6.8, nutrient agar): 100 µg/mL (≈ 290 µM)
MIC (Salmonella choleraesuis; pH 8.2, nutrient agar): > 500 µg/mL

N#CC1=C(C#N)Sc2c(cnn(-c3ccccc3)c2=O)S1 [A, 5,6-Dihydro-5-oxo-6-phenyl-1,4-dithiino(2,3-d)pyridazine-2,3-dicarbonitrile]
MIC ([1]; pH 6.8, nutrient agar): 25 µg/mL (≈ 80.6 µM)
MIC ([1]; pH 8.2, nutrient agar): < 10 µg/mL
MIC ([2]; pH 6.8, nutrient agar): 500 µg/mL (≈ 1610 µM)
MIC ([2]; pH 8.2, nutrient agar): > 500 µg/mL
MIC ([3]; pH 6.8, 30° C.): 250 µg/mL (≈ 806 µM)
MIC ([3]; pH 8.2, 30° C.): > 500 µg/mL
MIC (Fusarium oxysporum (Fo)): 25 µg/mL (≈ 80.6 µM)
MIC (Trichoderma viride (Tv)): 25 µg/mL (≈ 80.6 µM)
MIC [4]: 25 µg/mL (≈ 80.6 µM)
MIC (Escherichia coli (Ec); pH 6.8, nutrient agar): 50 µg/mL (≈ 161 µM)
MIC (Escherichia coli (Ec); pH 8.2, nutrient agar): > 500 µg/mL
MIC ([5]; pH 6.8, nutrient agar): 50 µg/mL (≈ 161 µM)
MIC ([5]; pH 8.2, nutrient agar): > 500 µg/mL
MIC (Candida albicans (Ca)): 25 µg/mL (≈ 80.6 µM)
MIC (Proteus vulgaris (Pv); pH 6.8, nutrient agar): 50 µg/mL (≈ 161 µM)
MIC (Proteus vulgaris (Pv); pH 8.2, nutrient agar): > 500 µg/mL
MIC (Bacillus subtilis (Bs); pH 6.8, nutrient agar): 50 µg/mL (≈ 161 µM)
MIC (Bacillus subtilis (Bs); pH 8.2, nutrient agar): 500 µg/mL (≈ 1610 µM)
MIC (Saccharomyces cerevisiae): < 10 µg/mL
MIC ([6]; pH 6.8): 250 µg/mL (≈ 806 µM)
MIC ([6]; pH 8.2): > 500 µg/mL
MIC [7]: 25 µg/mL (≈ 80.6 µM)
MIC (Aspergillus niger (An)): 25 µg/mL (≈ 80.6 µM)
MIC (Salmonella choleraesuis; pH 6.8, nutrient agar): 100 µg/mL (≈ 322 µM)
MIC (Salmonella choleraesuis; pH 8.2, nutrient agar): > 500 µg/mL
